Source: patent US10928381B2, “In vitro methods of monitoring autophagy in a human cell using a photoconvertable fluorescent protein linked biomarker” (The Regents of the University of Michigan, priority 2018, dated 2021)

Key:
[1] = tested on: Dendra2-LC3 HEK cells; test: Optical pulse labeling: time-dependent decay of photoconverted (red, RFP/TRITC) Dendra2-LC3 as measure of autophagic flux; assay type: cell-based, human; parameters: key to Hit class in screen of Enzo Autophagy compound library (9H RFP/0H RFP): enhancer: [Sample9H RFP/OH RFP]<[DMSO9H RFP/OH RFP−3SDDMSO]; inhibitor: [Sample9H RFP/OH RFP]>[DMSO9H RFP/OH RFP 3SDDMSO]; details: for Hit class in screen of Enzo Autophagy compound library (9H RFP/0H RFP): 10 uM, 9 hours after drug addition; for Phase II result, Dendra2-LC3 degradation kinetics: in comparison to DMSO
Protocol: FIGS. 8A-E. Time dependent decay of Dendra2-LC3 as an assay of autophagic flux. (FIG. 8A) Dendra2-LC3 reporter cells were imaged prior to photoconversion to measure background TRITC intensity. Immediately following photoconversion with a 5 second pulse of […] light, cells were treated with DMSO, 1 uM Torin1, or 10 nM Bafilomycin-A1 and then were subsequently imaged at the indicated time points. Images are psuedocolored to better highlight intensity differences. (FIGS. 8B-E) Time dependent changes in photoconverted Dendra2-LC3 fluorescence in the TRITC (FIGS. 8B, D) and GFP (FIGS. 8C, E) channels. Gray boxes represent the pre and post-photoconversion time points. TRITC intensity values are normalized, setting the background intensity prior to conversion to 0 and the post-conversion value to 1. GFP values are normalized to the pre-conversion intensity. Error bars represent the SEM from three replicate experiments. […] (FIG. 8C) Following photoconversion there is a 40% drop in GFP intensity. As new Dendra2-LC3 is synthesized, GFP levels return to pre-photoconversion levels over the span of 13.5 hours. […] Cells were transfected with 20 nM ATG5 siRNA two days prior to imaging.
FIG. 9A-C. Evaluating the efficacy of known autophagy modulators. (FIG. 9A) An unbiased screen of the Enzo Autophagy compound library identified several known autophagy compounds as hits providing construct validity to the assay. Rapamycin, NVP-BEZ235 and AKT inhibitor X, were among the compounds appropriately identified as enhancers while Bafilomycin registered as an inhibitor. […] Cells were imaged in RFP to measure background fluorescence, then photoconverted with a 4 second DAPI exposure and immediately imaged again to establish the postconversion intensity. Drugs from the Enzo Autophagy library were added at a concentration of 10 uM via a robotic liquid handler. 9 hours later the cells were imaged again in order to assess the efficacy of the drugs. Hits were defined as follows: enhancer: [Sample9H RFP/OH RFP]<[DMSO9H RFP/OH RFP−3SDDMSO], inhibitor: [Sample9H RFP/OH RFP]>[DMSO9H RFP/OH RFP 3SDDMSO]. […] Imaging of the compound library was repeated in GFP. Intensity values are reported 15 hours after drug treatment. (FIG. 9C) The reduction in Dendra2-LC3 half-life observed upon treatment of autophagic flux enhancers is attenuated with partial knockdown of ATG5. Cells were transfected with 20 nM ATG5 siRNA 2 days prior to imaging. Error bars represent SEM from three replicate experiments.
Experiments were conducted during development of embodiments herein to develop a sensitive method—optical pulse labeling (OPL)—that takes advantage of the photoconvertible fluorescent protein Dendra2 for estimations of autophagic flux in cellulo (Refs 14, 34; herein incorporated by reference in their entireties) (FIG. 1b). […] Dendra2 was fused to LC3, a specific marker of autophagosomes and itself an autophagy substrate (Refs. 27, 31; herein incorporated by reference in their entireties). Following photoconversion, the time-dependent reduction in red LC3-Dendra2 (FIG. 1c) is used to calculate protein half-life, representing an estimate of autophagy flux for individual cells (Refs. 14, 34; herein incorporated by reference in their entireties) Furthermore, because LC3 is degraded as autophagosomes mature, the return to steady-state levels of green Dendra2-LC3 after photoconversion (FIG. 1d) reflects activity within the pathway as a whole. The assay is noninvasive, permitting longitudinal analyses of autophagy kinetics in living cells, and amenable to HTS.
For these studies the potent mTOR inhibitor torin1 (Ref. 36; herein incorporated by reference in its entirety) was selected as a positive control for autophagy induction, and the vacuolar ATPase inhibitor bafilomycin-A1 (Ref. 37; herein incorporated by reference in its entirety) as a positive control for autophagy inhibition. In each case, DMSO served as a vehicle (negative) control. […]

[2] = tested on: Dendra2-LC3 HEK cells; test: Native (green, GFP) Dendra2-LC3 intensity and puncta, phase I primary screen readout (T15/T0); assay type: cell-based, human; details: for Phase I result, normalized GFP intensity (T15/T0): 15 h
Source text: Conventional methods for estimating autophagy flux rely upon the assessment of LC3 or other autophagy substrates by Western blotting or immunocytochemistry (Ref. 27; herein incorporated by reference in its entirety); by their very nature, these techniques are static and limited to dead cells. Fluorescence-based methods that use tagged substrates allow visualization of autophagy within living cells, but typically require the overexpression of autophagy target proteins that may disrupt the very process they are intended to measure. To assess autophagy in human cells without compromising or interfering with the pathway, experiments were conducted during development of embodiments herein utilizing CRISPR/Cas9 genome editing (Refs. 29-30; herein incorporated by reference in their entireties) to insert the Dendra2 open reading frame into the MAP1LC3B locus (encoding LC3) of HEK cells (FIG. 2a). A mutated, nickase version of Cas9 (Cas9n) was used that is incapable of making double-stranded DNA breaks, thereby minimizing the risk of non-homologous end joining and unwanted insertions or deletions (Refs. 29, 35; herein incorporated by reference in their entireties). Two separate single guide RNAs (sgRNAs) were designed that recognize sequences just upstream and downstream of the MAP1LC3B start codon, and a homology directed repair (HDR) vector encoding the Dendra2 open reading frame flanked by 400 bp of homologous sequence surrounding the MAP1LC3B start codon (FIG. 2a). Following expression of the sgRNAs, Cas9n and the HDR in HEK cells, colonies were selected based upon green fluorescence and passaged to homogeneity (FIG. 2b). The insertion site was confirmed by DNA sequencing, PCR, and immunocytochemistry using antibodies that recognize LC3. Providing further validation of the insertion, transfection with siRNA directed against the MAP1LC3B locus elicited a significant reduction in Dendra2-LC3 protein levels as measured by western blotting and native GFP fluorescence (FIG. 2c, d). In untreated cells, Dendra2-LC3 fluorescence appears diffuse, as expected (FIG. 3a). […] Second, autophagy induction in these cells is accompanied not only by the formation of puncta, but also by relative decreases in diffuse Dendra2-LC3 fluorescence, as indicated by the model in FIG. 1.
For these studies the potent mTOR inhibitor torin1 (Ref. 36; herein incorporated by reference in its entirety) was selected as a positive control for autophagy induction, and the vacuolar ATPase inhibitor bafilomycin-A1 (Ref. 37; herein incorporated by reference in its entirety) as a positive control for autophagy inhibition. In each case, DMSO served as a vehicle (negative) control. Dendra2-LC3 was photoconverted immediately prior to drug application, and the fluorescence intensity in the green (GFP) and red (RFP) channels was measured at regular intervals for 15 h.
The Z′ value for the effect of torin1 on the normalized GFP intensity, calculated as a ratio of GFP intensity at 15 h to that at 0 h (T15/T0), was 0.63 when the assay was conducted in a 96-well format in our laboratory, and 0.56 when conducted in a 384-well format at the Center for Chemical Genomics (CCG, FIG. 3e), indicative of a robust screening platform (Ref. 38; herein incorporated by reference in its entirety). […] The false negative rate was near zero, ensuring a highly sensitive assay.
The possibility that cell death and toxicity mimics the reduction in GFP intensity that would otherwise denote autophagy induction was also addressed. To avoid confounding from toxicity, the area occupied by cells in each image is calculated using ImageJ software and used as a proxy for cell number; since all wells received the same number of cells, >25% reductions in the area occupied by cells at the end of the experiment indicates toxicity. The formation of Dendra2-LC3 puncta in each condition is scored simultaneously using the ‘analyze particles’ function in ImageJ. […]

[3] = tested on: primary rat cortical neurons overexpressing WT-TDP43-GFP; test: Survival of primary neurons overexpressing TDP43, automated fluorescence microscopy; assay type: cell-based; details: 25 nM
[4] = tested on: Tandem reporter (RFP-GFP-LC3) HeLa cells; test: Tandem reporter (RFP-GFP-LC3) assay, % of RFP puncta that are GFP positive; assay type: cell-based; details: imaged after 12 hours
Protocol: FIG. 13A-E. Validation of novel autophagy inhibitors with an independent measure of autophagic flux. (FIG. 13A) Tandem reporter (RFP-GFP-LC3) HeLa cells treated with the indicated compounds and imaged after 12 hours in RFP (middle panels) GFP (bottom panels). […] Concentrations used correspond to the lowest dose resulting in the maximum degree of colocalization between GFP and RFP puncta as calculated in (B). These are: 3 nM Bafilomycin, 1 uM Quinacrine, 50 uM 245536, and 100 uM of 254522, 45808, 234794, and 237373. (Scale bar: 50 μm) (FIG. 13B) The percentage of RFP positive puncta that are also GFP positive in tandem reporter HeLa cells was analyzed using Cell Profiler. First GFP (1a) and RFP (1b) images of the same field of cells are uploaded into Cell Profiler. Using the GFP images, nuclei are identified (2a-green outlines) and a nuclear mask (2b) is generated. […] Cellular boundries are identified (3a-purple outlines) and a cellular mask is created. […] Only puncta within this mask will be evaluated in subsequent steps. […] (FIG. 13D) Tandem reporter HeLa cells were imaged once prior to drug treatment and then treated with the lowest dose that produced the maximum response as calculated in (FIG. 13C) and imaged immediately after. […] Each point is calculated by taking the mean % of (GFP+/RFP+ puncta)/(RFP+) from 8 technical replicates. […]

Row | Structure (SMILES) | Hit class in screen of Enzo Autophagy compound library (9H RFP/0H RFP) [1] | Phase II result, Dendra2-LC3 degradation kinetics [1] | Phase I result, normalized GFP intensity (T15/T0) ([2]; Prestwick and Enzo collections) | also measured
1 | Cn1c(=O)n(-c2ccc(C(C)(C)C#N)cc2)c2c3cc(-c4cnc5ccccc5c4)ccc3ncc21 [NVP-BEZ235] | enhancer |  |  | Rank among autophagy inducers in phase I ([2]; Prestwick and Enzo collections): rank among the most potent inducers; Effect on TDP43 toxicity [3]: suppresses toxicity; Hazard ratio, Cox proportional hazards analysis ([3]; p<0.05): 0.89
2 | CCN(CC)CCCC(C)Nc1c2ccc(Cl)cc2nc2ccc(OC)cc12 (stereo not drawn) [Quinacrine] |  |  |  | Lowest dose resulting in the maximum degree of colocalization between GFP and RFP puncta [4]: 1 µM
3 | OCCN1CCN(CCCN2c3ccccc3Sc3ccc(C(F)(F)F)cc32)CC1 [Fluphenazine] |  |  |  | Formation of Dendra2-LC3 (LC3-positive) puncta ([2]; FPZ 0.5 μM, torin1 1 μM): elicits the formation of LC3-positive puncta; GFP intensity of native Dendra2-LC3 ([2]; FPZ 0.5 μM, torin1 1 μM, vs DMSO): reduces the steady-state GFP intensity
4 | NC(=O)N1c2ccccc2C=Cc2ccccc21 [carbamazepine] | failure to markedly affect flux | significantly slowed Dendra2-LC3 degradation | significant increases in Dendra2-LC3 GFP fluorescence | 
5 | C[C@@H]1C[C@@H]([C@H](O)CC2CC(=O)NC(=O)C2)C(=O)[C@@H](C)C1 [cycloheximide] |  | failed to affect Dendra2-LC3 degradation kinetics | potential autophagy inducers | 
6 | CCN(CC)CCCCN1c2ccccc2Oc2ccc(Cl)cc21 [AKT inhibitor X] | enhancer |  | autophagy inducers | 
7 | CO[C@H]1C[C@@H]2CC[C@@H](C)[C@@](O)(O2)C(=O)C(=O)N2CCCC[C@H]2C(=O)O[C@H]([C@H](C)C[C@@H]2CC[C@@H](O)[C@H](OC)C2)CC(=O)[C@H](C)/C=C(\C)[C@@H](O)[C@@H](OC)C(=O)[C@H](C)C[C@H](C)/C=C/C=C/C=C/1C [Rapamycin] | enhancer |  |  | 
8 | OC[C@H]1O[C@H](O[C@H]2O[C@H](CO)[C@@H](O)[C@H](O)[C@H]2O)[C@H](O)[C@@H](O)[C@@H]1O [trehalose] | failure to markedly affect flux |  |  | 
9 | O=C(CCCCCN1C(=O)c2cccc3cccc(c23)C1=O)NO [Scriptaid] |  | significantly slowed Dendra2-LC3 degradation | significant increases in Dendra2-LC3 GFP fluorescence | 
